Where “and” joins values, the source holds several entries; their conditions need not be identical. Equal values may be shown once.
Biological target: T1, Met receptor (EGFR/Met chimeric cells, EMR) (Homo sapiens, UniProt P08581)
T1 construct: expressed in transfected cells; the other entry of the earlier key: EGFR (P00533, Epidermal growth factor receptor)
Experiment: Met Autophosphorylation Assay
Format: biochemical
Experimental: Met Autophosphorylation Assay
This assay determines Met tyrosine kinase activity by analyzing Met protein tyrosine kinase levels on the Met receptor.
a. HNTG (5× stock solution): Dissolve 23.83 g HEPES and 43.83 g NaCl in about 350 ml dH2O. Adjust pH to 7.2 with HCl or NaOH, add 500 ml glycerol and 10 ml Triton X-100, mix, add dH2O to 1 L total volume. To make 1 L of 1× working solution add 200 ml 5× stock solution to 800 ml dH2O, check and adjust pH as necessary, store at 4° C.
b. PBS (Dulbecco's Phosphate-Buffered Saline), Gibco Cat. # 450-1300EB (1× solution).
c. Blocking Buffer: in 500 ml dH2O place 100 g BSA, 12.1 g Tris-pH7.5, 58.44 g NaCl and 10 ml Tween-20, dilute to 1 L total volume.
d. Kinase Buffer: To 500 ml dH2O add 12.1 g TRIS (pH 7.2), 58.4 g NaCl, 40.7 g MgCl2 and 1.9 g EGTA; bring to 1 L total volume with dH2O.
e. PMSF (Phenylmethylsulfonyl fluoride), Sigma Cat. # P-7626, to 435.5 mg, add 100% ethanol to 25 ml total volume, vortex.
f. ATP (Bacterial Source), Sigma Cat. # A-7699, store powder at −20° C.; to make up solution for use, dissolve 3.31 mg in 1 ml dH2O.
g. RC-20H HRPO Conjugated Anti-Phosphotyrosine, Transduction Laboratories Cat. # E120H.
h. Pierce 1-Step Turbo™ B-ELISA (3,3′,5,5′-tetramethylbenzidine, Pierce Cat. # 34022.
i. H2SO4, add 1 ml conc.(18 N) to 35 ml dH2O.
j. TRIS HCL, Fischer Cat. # BP152-5; to 121.14 g of material, add 600 ml MilliQ H2O, adjust pH to 7.5 (or 7.2) with HCl, bring volume to 1 L with MilliQ H2O.
k. NaCl, Fischer Cat. # S271-10, make up 5M solution.
m. Na3VO4, Fischer Cat. # S454-50, to 1.8 g material add 80 ml MilliQ H2O, adjust pH to 10.0 with HCl or NaOH, boil in microwave, cool, check pH, repeat procedure until pH stable at 10.0, add MilliQ H2O to 100 ml total volume, make 1 ml aliquots and store at −80° C.
n. MgCl2, Fischer Cat. # M33-500, make up 1M solution.
o. HEPES, Fischer Cat. # BP310-500, to 200 ml MilliQ H2O, add 59.6 g material, adjust pH to 7.5, bring volume to 250 ml total, sterile filter.
p. Albumin, Bovine (BSA), Sigma Cat. # A-4503, to 30 grams material add sterile distilled water to make total volume of 300 ml, store at 4° C.
q. TBST Buffer: to approx. 900 ml dH2O in a 1 L graduated cylinder add 6.057 g TRIS and 8.766 g NaCl, when dissolved, adjust pH to 7.2 with HCl, add 1.0 ml Triton X-100 and bring to 1 L total volume with dH2O.
r. Goat Affinity purified antibody Rabbit IgG (whole molecule), Cappel Cat. # 55641.
s. Anti h-Met (C-28) rabbit polyclonal IgG antibody, Santa Cruz Chemical Cat. # SC-161.
t. Transiently Transfected EGFR/Met chimeric cells (EMR) (Komada, et al., Oncogene, 8:2381-2390 (1993).
u. Sodium Carbonate Buffer, ([…], Fischer Cat. # S495) to 10.6 g material add 800 ml MilliQ H2O, when dissolved adjust pH to 9.6 with NaOH, bring up to 1 L total volume with MilliQ H2O, filter, store at 4° C.
All of the following steps are conducted at room temperature unless it is specifically indicated otherwise. All ELISA plate washing is by rinsing 4× with TBST.
This procedure can be performed the night before or immediately prior to the start of receptor capture.
1. Quick thaw lysates in a 37° C. waterbath with a swirling motion until the last crystals disappear.
2. Lyse cell pellet with 1× HNTG containing 1 mM PMSF. Use 3 ml of HNTG per 15 cm dish of cells. Add ½ the calculated HNTG volume, vortex the tube for 1 min., add the remaining amount of HNTG, vortex for another min.
3. Balance tubes, centrifuge at 10,000× g for 10 min at 4° C.
4. Pool supernatants, remove an aliquot for protein determination.
5. Quick freeze pooled sample in dry ice/ethanol bath. This step is performed regardless of whether lysate will be stored overnight or used immediately following protein determination.
6. Perform protein determination using standard bicinchoninic acid (BCA) method (BCA Assay Reagent Kit from Pierce Chemical Cat. # 23225).
1. Coat Corning 96 well ELISA plates with 5 μg per well Goat anti-Rabbit antibody in Carbonate Buffer for a total well volume of 50 μl. Store overnight at 4° C. […]

T1 sequence (P08581 with tags, fused parts or gaps): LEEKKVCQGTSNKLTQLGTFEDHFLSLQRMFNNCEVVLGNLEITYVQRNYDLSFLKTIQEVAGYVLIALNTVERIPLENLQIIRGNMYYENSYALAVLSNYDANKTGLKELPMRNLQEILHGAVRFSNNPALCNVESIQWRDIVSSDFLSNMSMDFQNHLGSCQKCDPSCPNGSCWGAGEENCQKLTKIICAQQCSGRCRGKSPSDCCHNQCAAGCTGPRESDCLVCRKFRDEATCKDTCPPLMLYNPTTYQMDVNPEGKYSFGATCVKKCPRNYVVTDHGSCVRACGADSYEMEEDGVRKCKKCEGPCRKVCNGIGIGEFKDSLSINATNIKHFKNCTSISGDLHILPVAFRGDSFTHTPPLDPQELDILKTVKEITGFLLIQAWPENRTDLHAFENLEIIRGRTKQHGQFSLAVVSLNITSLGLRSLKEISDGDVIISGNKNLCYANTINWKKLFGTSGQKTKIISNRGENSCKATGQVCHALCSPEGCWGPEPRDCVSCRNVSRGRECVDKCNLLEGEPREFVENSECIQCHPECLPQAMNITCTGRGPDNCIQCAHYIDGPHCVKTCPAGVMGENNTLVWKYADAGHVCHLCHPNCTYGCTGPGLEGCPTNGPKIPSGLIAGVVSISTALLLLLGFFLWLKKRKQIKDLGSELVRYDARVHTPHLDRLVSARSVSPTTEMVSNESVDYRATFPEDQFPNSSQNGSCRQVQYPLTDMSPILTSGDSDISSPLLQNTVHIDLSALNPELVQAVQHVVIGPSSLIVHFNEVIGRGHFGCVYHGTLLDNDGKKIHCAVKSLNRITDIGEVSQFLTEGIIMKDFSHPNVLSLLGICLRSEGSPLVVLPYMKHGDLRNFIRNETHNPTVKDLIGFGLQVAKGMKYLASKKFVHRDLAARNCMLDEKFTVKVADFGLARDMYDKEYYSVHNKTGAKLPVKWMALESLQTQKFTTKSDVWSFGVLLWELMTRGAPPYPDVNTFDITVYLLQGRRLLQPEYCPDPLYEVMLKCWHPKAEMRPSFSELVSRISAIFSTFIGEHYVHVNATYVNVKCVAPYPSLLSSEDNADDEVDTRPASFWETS

Compound	Met Kinase % Inhibition (P.130)
Cc1c(Br)cc(Br)c2c1C(=Cc1ccc(F)cc1)C(=O)N2 [10717/H05]	16.3%
Cc1c(Br)cc(Br)c2c1C(=Cc1c[nH]c3ccccc13)C(=O)N2 [10717/H06]	30.5%
Cc1ccc(C=C2C(=O)Nc3c(Br)cc(Br)c(C)c32)s1 [10717/H07]	9.1%
Cc1c(Br)cc(Br)c2c1C(=Cc1ccc(Br)cc1)C(=O)N2 [10717/H08]	23.0%
Cc1c(Br)cc(Br)c2c1C(=Cc1ccc[nH]1)C(=O)N2 [10717/H09]	8.8%
COc1cccc(O)c1C=C1C(=O)Nc2c(Br)cc(Br)c(C)c21 [10717/H10]	52.3%
Cc1[nH]c(C=C2C(=O)Nc3c(Br)cc(Br)c(C)c32)c(Br)c1Br [10717/H11]	58.2%
Cc1c(Br)cc(Br)c2c1C(=Cc1ccc(Br)o1)C(=O)N2 [10726/H05]	80.2%
Cc1cn(C)cc1C=C1C(=O)Nc2c(Br)cc(Br)c(C)c21 [10726/H06]	35.1%
Cc1c(Br)cc(Br)c2c1C(=Cc1cc(O)c3c(c1O)CCCC3)C(=O)N2 [10726/H07]	80.9%
Cc1c(Br)cc(Br)c2c1C(=C1C(=O)Nc3ccc(F)cc31)C(=O)N2 [10726/H08]	71.2%
Cc1c(Br)cc(Br)c2c1C(=C1C(=O)Nc3ccccc31)C(=O)N2 [10726/H09]	68.1%
CCc1ccc(C=C2C(=O)Nc3c(Br)cc(Br)c(C)c32)s1 [10726/H10]	45.7%
COc1ccc(C=C2C(=O)Nc3c(Br)cc(Br)c(C)c32)cc1 [10726/H11]	40.8%
CCN(CC)c1ccc(C=C2C(=O)Nc3c(Br)cc(Br)c(C)c32)cc1 [10727/H02]	55.5%
CCc1cc(CC)c(C=C2C(=O)Nc3c(Br)cc(Br)c(C)c32)[nH]1 [10727/H03]	49.2%
Cc1c(Br)cc(Br)c2c1C(=Cc1cc(Cl)cc(Br)c1O)C(=O)N2 [10727/H04]	81.7%
Cc1c(Br)cc(Br)c2c1C(=Cc1ccccc1Sc1ccc(Cl)cc1)C(=O)N2 [10727/H05]	20.6%
Cc1c(Br)cc(Br)c2c1C(=Cc1cc3c(cc1Cl)OCO3)C(=O)N2 [10727/H06]	5.2%
Cc1c(Br)cc(Br)c2c1C(=Cc1coc3ccccc3c1=O)C(=O)N2 [10727/H07]	26.8%
Cc1c(Br)cc(Br)c2c1C(=Cc1cccc(C#N)c1)C(=O)N2 [10727/H08]	12.3%
Cc1c(Br)cc(Br)c2c1C(=Cc1ccc(C#N)cc1)C(=O)N2 [10727/H09]	31.1%
Cc1c(Br)cc(Br)c2c1C(=Cc1cc(O)ccc1O)C(=O)N2 [10727/H10]	89.7%
COc1cccc(C=C2C(=O)Nc3c(Br)cc(Br)c(C)c32)c1OC [10727/H11]	17.9%
COc1ccc(OC)c(C=C2C(=O)Nc3c(Br)cc(Br)c(C)c32)c1 [10728/H02]	25.8%
COc1cccc(OC)c1C=C1C(=O)Nc2c(Br)cc(Br)c(C)c21 [10728/H03]	15.6%
COc1cc(C=C2C(=O)Nc3c(Br)cc(Br)c(C)c32)cc(OC)c1 [10728/H04]	32.9%

Compound	Met Kinase % Inhibition (P.130)
COc1cc(N(C)C)ccc1C=C1C(=O)Nc2c(Br)cc(Br)c(C)c21 [10728/H05]	41.2% and 33.9%
Cc1c(Br)cc(Br)c2c1C(=Cc1ccc3c(c1)Cc1ccccc1-3)C(=O)N2 [10728/H06]	28.5%
Cc1c(Br)cc(Br)c2c1C(=Cc1cccc(C(F)(F)F)c1F)C(=O)N2 [10728/H07]	45.8%
Cc1c(Br)cc(Br)c2c1C(=Cc1c(F)cccc1C(F)(F)F)C(=O)N2 [10728/H09]	30.5%
Cc1c(Br)cc(Br)c2c1C(=Cc1ccccc1OCC(=O)O)C(=O)N2 [10728/H10]	65.2%
COc1cc(C=C2C(=O)Nc3c(Br)cc(Br)c(C)c32)cc2c1OCO2 [10728/H11]	8.0%
COc1ccc2ccccc2c1C=C1C(=O)Nc2c(Br)cc(Br)c(C)c21 [10729/H02]	25.5%
COc1ccc(C=C2C(=O)Nc3c(Br)cc(Br)c(C)c32)c2ccccc12 [10729/H03]	2.8%
CSc1ccc(C=C2C(=O)Nc3c(Br)cc(Br)c(C)c32)cc1 [10729/H04]	25.1%
Cc1ccsc1C=C1C(=O)Nc2c(Br)cc(Br)c(C)c21 [10729/H05]	27.9%
Cc1c(Br)cc(Br)c2c1C(=Cc1cccc(Oc3ccccc3)c1)C(=O)N2 [10729/H06]	28.4%
Cc1c(Br)cc(Br)c2c1C(=Cc1ccccn1)C(=O)N2 [10729/H07]	81.0%
Cc1c(Br)cc(Br)c2c1C(=Cc1cccnc1)C(=O)N2 [10729/H08]	44.0%
Cc1c(Br)cc(Br)c2c1C(=Cc1ccncc1)C(=O)N2 [10729/H09]	45.1%
Cc1c(Br)cc(Br)c2c1C(=Cc1ccc(N3CCCC3)cc1)C(=O)N2 [10729/H10]	12.8%
Cc1c(Br)cc(Br)c2c1C(=CC1C=CCCC1)C(=O)N2 (centres unmarked) [10729/H11]	36.1%
COc1ccc(C=C2C(=O)Nc3c(Br)cc(Br)c(C)c32)c(OC)c1OC [10730/H02]	32.0%
COc1cc(OC)c(OC)cc1C=C1C(=O)Nc2c(Br)cc(Br)c(C)c21 [10730/H03]	28.3%
COc1cc(C=C2C(=O)Nc3c(Br)cc(Br)c(C)c32)cc(OC)c1OC [10730/H04]	37.1%
CC(=O)n1cc(C=C2C(=O)Nc3c(Br)cc(Br)c(C)c32)c2ccccc21 [10730/H05]	30.7%
Cc1c(Br)cc(Br)c2c1C(=Cc1ccc(-c3ccccc3Cl)o1)C(=O)N2 [10730/H07]	38.7%
Cc1c(Br)cc(Br)c2c1C(=Cc1cc3ccccc3nc1Cl)C(=O)N2 [10730/H08]	57.8%
COC1CC(C=C2C(=O)Nc3c(Br)cc(Br)c(C)c32)C(OC)O1 (centres unmarked) [10730/H10]	24.9%
Cc1cc(C=C2C(=O)Nc3c(Br)cc(Br)c(C)c32)oc1C [10730/H11]	32.6%
CCn1c2ccccc2c2cc(C=C3C(=O)Nc4c(Br)cc(Br)c(C)c43)ccc21 [10731/H02]	16.4%
Cc1cc2occ(C=C3C(=O)Nc4c(Br)cc(Br)c(C)c43)c(=O)c2cc1C [10731/H03]	23.3%
